According to patent US11191756B2, “Dosing and effect of C5a antagonist with ANCA-associated vasculitis” (CHEMOCENTRYX, INC., priority 2018, dated 2021):
“Also recorded” adds a separate entry of the source.

Columns and labels:
Assay type in all cases: in vivo, human
[1] = test system: sC5b-9; experiment: Plasma sC5b-9 by ELISA in AAV patients of the CLEAR trial; settings: for sC5b-9, change in plasma level (Summary of Results): AAV patients, 12 week treatment period, all also received cyclophosphamide or rituximab; for circulating sC5b-9 levels, change from baseline: any treatment group, 6 h, days 8, 29, 85
Method: (§1) The CLEAR trial (Jayne D R W, et al. JASN 2017; 28:2756) compared 3 regimens in 67 patients with AAV: (1) full dose prednisone (60 mg daily, tapered); (2) avacopan 30 mg twice daily plus low dose prednisone (20 mg, tapered); (3) avacopan 30 mg twice daily plus no prednisone. All also received either cyclophosphamide or rituximab. There was a 12-week treatment period with 12 week follow-up period
(§2) Plasma samples were collected from AAV patients who participated in CLEAR study at baseline and at 6 hour, Days 8, 29, and 85 during treatment. Plasma samples from 20 health controls matched for age, gender and ethnic background were collected at UNC Kidney Center.
(§3) EDTA whole blood was kept on ice immediately after collection and centrifuged at 4° C. for plasma preparation. Plasma samples were stored at −80° C. freezer until analysis for complement Bb, C5a, […] and properdin by ELISA in one thaw.
(§4) Paired t-test was used for within group comparison and unpaired t-test was used for between group comparisons using log transformed data. P-values were corrected for multiple comparisons.

[2] = test system: complement factor Bb; experiment: Plasma complement factor Bb by ELISA in AAV patients of the CLEAR trial; settings: for Bb, change in plasma level (Summary of Results): AAV patients, 12 week treatment period, all also received cyclophosphamide or rituximab
Method: as §1, §2, §3, §4

[3] = test system: properdin; experiment: Plasma properdin by ELISA in AAV patients of the CLEAR trial; settings: for Properdin, change in plasma level (Summary of Results): AAV patients, 12 week treatment period, all also received cyclophosphamide or rituximab; for circulating properdin levels, change from baseline: any treatment group, 6 h, days 8, 29, 85
Method: as §1, §2, §3, §4

[4] = test system: complement factor C5a; experiment: Plasma complement factor C5a by ELISA in AAV patients of the CLEAR trial; settings: for C5a, change in plasma level (Summary of Results): AAV patients, 12 week treatment period, all also received cyclophosphamide or rituximab
Method: as §1, §2, §3, §4

[5] = test system: complement factor C3a; experiment: Plasma complement factor C3a by ELISA in AAV patients of the CLEAR trial; settings: for C3a, change in plasma level (Summary of Results): AAV patients, 12 week treatment period, all also received cyclophosphamide or rituximab; for C3a levels compared to baseline: full dose prednisone
Method: as §1, §2, §3, §4

[6] = test system: patients with AAV; experiment: CLEAR trial clinical outcome in ANCA-associated vasculitis; settings: for clinical benefit / improvement in AAV: 12 week treatment period, avacopan 30 mg twice daily
Description: (A) plots the Birmingham Vasculitis Activity Score; (B) plots the urinary albumin to creatine ration; (C) plots the EuroQOL-5D-5L visual analgue scale; (D) plots the Short Form-36 physical functioning results; and (E) plots the Short Form-36 role emotional results. Patients receiving high dose prednisone are plotted with diamonds; patients receiving avacopan with low dose prednisone are plotted with squares; and patients receiving avacopan with no prednisone are plotted with triangles.
as §1

[7] = CLEAR trial, AAV patients, avacopan with low dose or no prednisone
[8] = day 85, when prednisone was tapered

Structure (SMILES) | sC5b-9, change in plasma level (Summary of Results) [1] | circulating sC5b-9 levels, change from baseline [1] | Bb, change in plasma level (Summary of Results) [2] | Properdin, change in plasma level (Summary of Results) [3] | circulating properdin levels, change from baseline [3] | C5a, change in plasma level (Summary of Results) [4] | C3a, change in plasma level (Summary of Results) [5] | further results
Cc1ccc(NC(=O)[C@H]2CCCN(C(=O)c3c(C)cccc3F)[C@H]2c2ccc(NC3CCCC3)cc2)cc1C(F)(F)F [Avacopan, avacopan] | No changes | did not change; also recorded: No statistically significant changes | No changes | No changes | No statistically significant changes | No changes | No changes | Bb levels during treatment compared to pre-dose ([2]; avacopan 30 mg twice daily with low dose or no prednisone, 6 h, days 8, 29, 85): did not impact; also recorded: No change; C5a levels during treatment compared to baseline ([4]; avacopan 30 mg twice daily with low or no prednisone, 6 h, days 8, 29, 85): did not impact; also recorded: No change; C3a levels during treatment compared to baseline ([5]; avacopan 30 mg twice daily without prednisone, 6 h, days 8, 29, 85): did not impact; also recorded: No change; clinical benefit / improvement in AAV [6]: achieved clinical benefit; also recorded: rapid improvement; clinical benefit / improvement in AAV ([6]; listed as avacopan): rapidly improves; disease activity (Birmingham Vasculitis Activity Score, urinary albumin to creatinine ratio) [6, 7]: rapid decrease; health-related quality of life (EuroQOL-5D-5L, Short Form-36) [6, 7]: significant improvement
C[C@]12C=CC(=O)C=C1CC[C@@H]1[C@@H]2C(=O)C[C@@]2(C)[C@H]1CC[C@]2(O)C(=O)CO [Prednisone, prednisone] | No changes | No statistically significant changes | ↓ | No changes | No statistically significant changes | ↓ | ↓ | Bb levels [2, 8]: rising again; also recorded: rose again; Bb levels compared to pre-dose ([2]; days 8 and 29, full dose prednisone 60 mg daily, tapered): decreased significantly; C5a levels compared to baseline ([4]; day 8 and 29, high dose prednisone): decreased significantly; also recorded: decrease; C5a levels [4, 8]: rising again; also recorded: rose again; C3a levels compared to baseline ([5]; 6 hours): decreased; C3a levels [5, 8]: rising again; also recorded: rose again; C3a levels compared to baseline ([5]; days 8 and 29): decreased significantly; also recorded: further decreased
